Source: PubChem BioAssay AID248 (DTP/NCI, 2004)
Where “and” joins values, the source holds several entries; their conditions need not be identical. Equal values may be shown once. Inconclusive results and toxic doses are left out. No stated cut-off is given here; in the data, active means T/C of 150% or more; inactive means T/C below 125%.

Tested on: L1210 leukemia ip in BDF1 mice, survival T/C
Assay: NCI In Vivo Anticancer Drug Screen. Data for tumor model L1210 Leukemia (intraperitoneal) in B6D2F1 (BDF1) mice
Details: endpoint: mean survival time, higher = longer survival
Summary of the method: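 Read-out is survival time, reported as the treated-group measurement over the vehicle-control measurement.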

[1] = dose: 100.0 mg/kg/injection, schedule: Q04DX003 (ip), vehicle: saline
[2] = dose: 200.0 mg/kg/injection, schedule: Q04DX003 (ip), vehicle: saline
[3] = dose: 400.0 mg/kg/injection, schedule: Q04DX003 (ip), vehicle: saline

Measured: T/C

CCC(C)(C=O)C(C)=O (configuration not stated)
inactive: [1] 98 % of control | [2] 96 % of control | [3] 88 % of control

Cc1ccc(N=Nc2c(C)nc(N)nc2C)cc1
inactive: dose: 75.0 mg/kg/injection, schedule: Q01DX001 (ip), vehicle: saline 97 % of control | dose: 150.0 mg/kg/injection, schedule: Q01DX001 (ip), vehicle: saline 91 % of control

CCC[CH2][Sn]1([CH2]CCC)[O]CC2(CCCCC2)C[O]1
inactive: dose: 2.5 mg/kg/injection, schedule: Q04DX002 (ip), vehicle: saline + alcohol 94 % of control and 102 % of control | dose: 5.0 mg/kg/injection, schedule: Q04DX002 (ip), vehicle: saline + alcohol 105 % of control and 118 % of control | dose: 10.0 mg/kg/injection, schedule: Q04DX002 (ip), vehicle: saline + alcohol 105 % of control | dose: 20.0 mg/kg/injection, schedule: Q04DX002 (ip), vehicle: saline + alcohol 93 % of control and 105 % of control

O=c1cc(-c2c(O)cc(O)cc2O)oc2cc(O)cc(O)c12
inactive: dose: 100.0 mg/kg/injection, schedule: Q01DX001 (ip), vehicle: carboxymethylcellulose (CMC) 94 % of control | dose: 200.0 mg/kg/injection, schedule: Q01DX001 (ip), vehicle: carboxymethylcellulose (CMC) 94 % of control | dose: 400.0 mg/kg/injection, schedule: Q01DX001 (ip), vehicle: carboxymethylcellulose (CMC) 92 % of control

COc1cccc(OC)c1-c1oc2ccccc2c(=O)c1O
inactive: dose: 100.0 mg/kg/injection, schedule: Q01DX009 (ip), vehicle: acetone 94 % of control | [1] 95 % of control | dose: 200.0 mg/kg/injection, schedule: Q01DX009 (ip), vehicle: acetone 95 % of control | [2] 94 % of control | dose: 400.0 mg/kg/injection, schedule: Q01DX009 (ip), vehicle: acetone 95 % of control | [3] 94 % of control

O=C(O)Cc1cccc(C(=O)O)c1
inactive: dose: 100.0 mg/kg/injection, schedule: Q01DX001 (ip), vehicle: saline 103 % of control | dose: 200.0 mg/kg/injection, schedule: Q01DX001 (ip), vehicle: saline 104 % of control | dose: 400.0 mg/kg/injection, schedule: Q01DX001 (ip), vehicle: saline 115 % of control

S=c1[nH]c(-c2ccccc2)cs1
inactive: dose: 50.0 mg/kg/injection, schedule: Q01DX001 (ip), vehicle: other 90 % of control | dose: 100.0 mg/kg/injection, schedule: Q01DX001 (ip), vehicle: Klucel (hydroxypropylcellulose) (HPC) 96 % of control | dose: 100.0 mg/kg/injection, schedule: Q01DX001 (ip), vehicle: other 96 % of control | dose: 100.0 mg/kg/injection, schedule: Q01DX009 (ip), vehicle: Klucel (hydroxypropylcellulose) (HPC) 96 % of control | dose: 200.0 mg/kg/injection, schedule: Q01DX001 (ip), vehicle: Klucel (hydroxypropylcellulose) (HPC) 95 % of control | dose: 200.0 mg/kg/injection, schedule: Q01DX001 (ip), vehicle: other 100 % of control | dose: 200.0 mg/kg/injection, schedule: Q01DX009 (ip), vehicle: Klucel (hydroxypropylcellulose) (HPC) 96 % of control | dose: 400.0 mg/kg/injection, schedule: Q01DX001 (ip), vehicle: Klucel (hydroxypropylcellulose) (HPC) 95 % of control | dose: 400.0 mg/kg/injection, schedule: Q01DX001 (ip), vehicle: other 96 % of control | dose: 400.0 mg/kg/injection, schedule: Q01DX009 (ip), vehicle: Klucel (hydroxypropylcellulose) (HPC) 97 % of control

Cc1c(/C=C(\C#N)c2ccc([N+](=O)[O-])cc2)c(=O)n(-c2ccccc2)n1C
inactive: dose: 100.0 mg/kg/injection, schedule: Q01DX009 (ip), vehicle: gum acacia 93 % of control | dose: 100.0 mg/kg/injection, schedule: Q04DX003 (ip), vehicle: gum acacia 92 % of control | dose: 200.0 mg/kg/injection, schedule: Q01DX009 (ip), vehicle: gum acacia 90 % of control | dose: 200.0 mg/kg/injection, schedule: Q04DX003 (ip), vehicle: gum acacia 105 % of control | dose: 400.0 mg/kg/injection, schedule: Q01DX009 (ip), vehicle: gum acacia 89 % of control | dose: 400.0 mg/kg/injection, schedule: Q04DX003 (ip), vehicle: gum acacia 95 % of control
